ChEMBL document CHEMBL1201862, “PubChem BioAssay data set” (2004)
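Exposure lasted 48 hours, with cells grown in 96-well plates and compounds tested at five concentrations. GI50 is the concentration that inhibits growth by half.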 Active and inactive are the calls of the source. Rule as the data show it: active = GI50 up to about 1.1 µM and inactive = higher.

Key:
Assay in all cases: NCI anticancer screen, dose series, 48 h
TK-10 = test system: TK-10
RXF 393 = test system: RXF 393
OVCAR-5 = test system: OVCAR-5
DMS-114 = test system: DMS-114
MOLT-4 = test system: MOLT-4
SW-620 = test system: SW-620
U-251 = test system: U-251
COLO 205 = test system: COLO 205
EKVX = test system: EKVX
CCRF-CEM = test system: CCRF-CEM
HCT-116 = test system: HCT-116
M19-MEL = test system: M19-MEL
OVCAR-3 = test system: OVCAR-3
UACC-257 = test system: UACC-257
XF498 = test system: XF498
SNB-19 = test system: SNB-19
SK-MEL-5 = test system: SK-MEL-5
HOP-62 = test system: HOP-62
A498 = test system: A498
DLD-1 = test system: DLD-1
HL-60 = test system: HL-60
IGROV-1 = test system: IGROV-1
A549 = test system: A549
OVCAR-4 = test system: OVCAR-4
HT-29 = test system: HT-29
Malme-3M = test system: Malme-3M
LOX IMVI = test system: LOX IMVI
KM-20L2 = test system: KM-20L2
LXFL 529 = test system: LXFL 529
HCC 2998 = test system: HCC 2998
SK-OV-3 = test system: SK-OV-3
NCI-H522 = test system: NCI-H522
HOP-18 = test system: HOP-18
M14 = test system: M14
CAKI-1 = test system: CAKI-1
SK-MEL-2 = test system: SK-MEL-2
SN12C = test system: SN12C
NCI-H460 = test system: NCI-H460
SF-539 = test system: SF-539
NCI-H23 = test system: NCI-H23
KM12 = test system: KM12
SNB-78 = test system: SNB-78
786-0 = test system: 786-0
UO-31 = test system: UO-31
SR = test system: SR
K562 = test system: K562
HCT-15 = test system: HCT-15
SK-MEL-28 = test system: SK-MEL-28
SF-295 = test system: SF-295
DMS-273 = test system: DMS-273
HOP-92 = test system: HOP-92
NCI-H226 = test system: NCI-H226
RPMI-8226 = test system: RPMI-8226
ACHN = test system: ACHN
UACC-62 = test system: UACC-62
SNB-75 = test system: SNB-75
OVCAR-8 = test system: OVCAR-8
SF-268 = test system: SF-268
RXF 631 = test system: RXF 631

CCOC(=O)CC(NCc1ccc(/N=C/c2nc3ccc(C(F)(F)F)cc3nc2-c2ccccc2)cc1)C(=O)OCC (centres undefined)
GI50 (TK-10): 23.3 µM (inactive)
GI50 (RXF 393): 15.2 µM (inactive)
GI50 (OVCAR-5): > 100 µM (inactive)
GI50 (DMS-114): > 68.5 µM (inactive)
GI50 (MOLT-4): > 100 µM (inactive)
GI50 (SW-620): > 100 µM (inactive)
GI50 (U-251): 21.8 µM (inactive)
GI50 (COLO 205): > 100 µM (inactive)
GI50 (EKVX): > 69.5 µM (inactive)
GI50 (CCRF-CEM): > 100 µM (inactive)
GI50 (HCT-116): > 55.5 µM (inactive)
GI50 (M19-MEL): > 100 µM (inactive)
GI50 (OVCAR-3): > 100 µM (inactive)
GI50 (UACC-257): > 100 µM (inactive)
GI50 (XF498): 14.2 µM (inactive)
GI50 (SNB-19): 27.9 µM (inactive)
GI50 (SK-MEL-5): > 78.7 µM (inactive)
GI50 (HOP-62): 29 µM (inactive)
GI50 (A498): > 61.1 µM (inactive)
GI50 (DLD-1): > 100 µM (inactive)
GI50 (HL-60): > 100 µM (inactive)
GI50 (IGROV-1): > 63.1 µM (inactive)
GI50 (A549): > 100 µM (inactive)
GI50 (OVCAR-4): > 100 µM (inactive)
GI50 (HT-29): > 100 µM (inactive)
GI50 (Malme-3M): > 100 µM (inactive)
GI50 (LOX IMVI): > 100 µM (inactive)
GI50 (KM-20L2): > 54.7 µM (inactive)
GI50 (LXFL 529): > 100 µM (inactive)
GI50 (HCC 2998): 27 µM (inactive)
GI50 (SK-OV-3): 29 µM (inactive)
GI50 (NCI-H522): > 100 µM (inactive)
GI50 (HOP-18): 24.7 µM (inactive)
GI50 (M14): > 80.7 µM (inactive)
GI50 (CAKI-1): > 100 µM (inactive)
GI50 (SK-MEL-2): > 47.3 µM (inactive)
GI50 (SN12C): > 100 µM (inactive)
GI50 (NCI-H460): > 100 µM (inactive)
GI50 (SF-539): 17.9 µM (inactive)
GI50 (NCI-H23): > 57.3 µM (inactive)
GI50 (KM12): > 100 µM (inactive)
GI50 (SNB-78): > 72.1 µM (inactive)
GI50 (786-0): 15.3 µM (inactive)
GI50 (UO-31): > 100 µM (inactive)
GI50 (SR): > 100 µM (inactive)
GI50 (K562): > 100 µM (inactive)
GI50 (HCT-15): > 100 µM
GI50 (SK-MEL-28): > 100 µM (inactive)
GI50 (SF-295): 27.2 µM (inactive)
GI50 (DMS-273): > 64.1 µM (inactive)
GI50 (HOP-92): > 100 µM (inactive)
GI50 (NCI-H226): > 100 µM (inactive)
GI50 (RPMI-8226): > 100 µM (inactive)
GI50 (ACHN): > 58.6 µM (inactive)
GI50 (UACC-62): 13.7 µM (inactive)
GI50 (SNB-75): 12.1 µM (inactive)
GI50 (OVCAR-8): > 100 µM (inactive)
GI50 (SF-268): > 100 µM (inactive)

CN(C)C(=S)/N=c1\ssc(=S)n1-c1ccccc1
GI50 (TK-10): 16.9 µM (inactive)
GI50 (RXF 393): 18.7 µM (inactive)
GI50 (OVCAR-5): 16 µM (inactive)
GI50 (DMS-114): 15.9 µM (inactive)
GI50 (SW-620): 10.7 µM (inactive)
GI50 (U-251): 15.8 µM (inactive)
GI50 (EKVX): 23.4 µM (inactive)
GI50 (CCRF-CEM): 0.36 µM (active)
GI50 (HCT-116): 13.7 µM (inactive)
GI50 (M19-MEL): 16.3 µM (inactive)
GI50 (UACC-257): 15.7 µM (inactive)
GI50 (XF498): 14.7 µM (inactive)
GI50 (SNB-19): 39.6 µM (inactive)
GI50 (SK-MEL-5): 32.7 µM (inactive)
GI50 (HOP-62): 34.2 µM (inactive)
GI50 (A498): 21.3 µM (inactive)
GI50 (DLD-1): 13.8 µM (inactive)
GI50 (HL-60): 18.1 µM (inactive)
GI50 (IGROV-1): 17 µM (inactive)
GI50 (A549): 25.3 µM (inactive)
GI50 (OVCAR-4): 15.9 µM (inactive)
GI50 (HT-29): 18.9 µM (inactive)
GI50 (Malme-3M): 16.9 µM (inactive)
GI50 (KM-20L2): 16.6 µM (inactive)
GI50 (LXFL 529): 12.4 µM (inactive)
GI50 (HCC 2998): 19.6 µM (inactive)
GI50 (SK-OV-3): 83.9 µM (inactive)
GI50 (NCI-H522): 14.5 µM (inactive)
GI50 (HOP-18): > 100 µM (inactive)
GI50 (M14): 15 µM (inactive)
GI50 (CAKI-1): 19.2 µM (inactive)
GI50 (SK-MEL-2): 8.75 µM (inactive)
GI50 (SN12C): 15.3 µM (inactive)
GI50 (NCI-H460): 16.1 µM (inactive)
GI50 (SF-539): 16.8 µM (inactive)
GI50 (NCI-H23): 24.2 µM (inactive)
GI50 (KM12): 5.38 µM (inactive)
GI50 (SNB-78): 19.4 µM (inactive)
GI50 (786-0): 16.8 µM (inactive)
GI50 (UO-31): 23.3 µM (inactive)
GI50 (K562): 17.1 µM (inactive)
GI50 (HCT-15): 14.7 µM
GI50 (SK-MEL-28): 16.7 µM (inactive)
GI50 (SF-295): 24.2 µM (inactive)
GI50 (DMS-273): 20.9 µM (inactive)
GI50 (HOP-92): 20.4 µM (inactive)
GI50 (NCI-H226): 10.1 µM (inactive)
GI50 (ACHN): 16.7 µM (inactive)
GI50 (UACC-62): 16 µM (inactive)
GI50 (SNB-75): 17.4 µM (inactive)
GI50 (OVCAR-8): 15.2 µM (inactive)
GI50 (SF-268): 16.9 µM (inactive)

COc1cc([C@@H]2OC(=O)C3C2C(=O)O[C@H]3c2ccc(O)c(OC)c2)ccc1O (some centres undefined)
GI50 (TK-10): > 100 µM (inactive)
GI50 (RXF 393): > 100 µM (inactive)
GI50 (OVCAR-5): > 100 µM (inactive)
GI50 (DMS-114): > 100 µM (inactive)
GI50 (MOLT-4): > 100 µM (inactive)
GI50 (SW-620): > 100 µM (inactive)
GI50 (U-251): > 100 µM (inactive)
GI50 (COLO 205): > 100 µM (inactive)
GI50 (CCRF-CEM): > 100 µM (inactive)
GI50 (HCT-116): > 100 µM (inactive)
GI50 (M19-MEL): > 100 µM (inactive)
GI50 (OVCAR-3): > 100 µM (inactive)
GI50 (UACC-257): > 100 µM (inactive)
GI50 (SNB-19): > 100 µM (inactive)
GI50 (SK-MEL-5): > 100 µM (inactive)
GI50 (HOP-62): > 100 µM (inactive)
GI50 (A498): > 100 µM (inactive)
GI50 (DLD-1): > 100 µM (inactive)
GI50 (IGROV-1): > 100 µM (inactive)
GI50 (A549): > 100 µM (inactive)
GI50 (RXF 631): > 100 µM (inactive)
GI50 (OVCAR-4): > 100 µM (inactive)
GI50 (HT-29): > 100 µM (inactive)
GI50 (Malme-3M): > 100 µM (inactive)
GI50 (LOX IMVI): > 100 µM (inactive)
GI50 (KM-20L2): > 100 µM (inactive)
GI50 (LXFL 529): > 100 µM (inactive)
GI50 (HCC 2998): > 100 µM (inactive)
GI50 (SK-OV-3): > 100 µM (inactive)
GI50 (HOP-18): > 100 µM (inactive)
GI50 (M14): > 100 µM (inactive)
GI50 (CAKI-1): > 100 µM (inactive)
GI50 (SN12C): > 100 µM (inactive)
GI50 (NCI-H460): > 100 µM (inactive)
GI50 (SF-539): > 100 µM (inactive)
GI50 (NCI-H23): > 100 µM (inactive)
GI50 (KM12): > 100 µM (inactive)
GI50 (SNB-78): > 100 µM (inactive)
GI50 (786-0): > 100 µM (inactive)
GI50 (UO-31): > 100 µM (inactive)
GI50 (SR): > 100 µM (inactive)
GI50 (K562): > 100 µM (inactive)
GI50 (HCT-15): > 100 µM
GI50 (SK-MEL-28): > 100 µM (inactive)
GI50 (SF-295): > 100 µM (inactive)
GI50 (DMS-273): > 100 µM (inactive)
GI50 (HOP-92): > 100 µM (inactive)
GI50 (NCI-H226): > 100 µM (inactive)
GI50 (RPMI-8226): > 100 µM (inactive)
GI50 (ACHN): > 100 µM (inactive)
GI50 (UACC-62): > 100 µM (inactive)
GI50 (SNB-75): > 100 µM (inactive)
GI50 (OVCAR-8): > 100 µM (inactive)
GI50 (SF-268): > 100 µM (inactive)
